“Also recorded” adds a separate entry of the source.
Key:
Type in all cases: cell-based
[1] = tested on: INS-1 insulin-secreting β-cells; assay: Insulin secretion in INS-1 cells in the presence of oxidative stress (H2O2); details: 8.3 mmol·L^−1 glucose + H2O2; for concentration active in preventing insulin secretion impairment induced by H2O2: lowest active concentration
Description: (§1) Before the treatment, RPMI medium was removed and the cells were washed twice with HEPES-balanced Krebs-Ringer bicarbonate buffer (KRB) containing (in mmol·L^−1): 123 NaCl, 5.4 KCl, 1.3 KH2PO4, 2.7 MgSO4, 2.9 CaCl2, 5 NaHCO3 and 20 HEPES, pH 7.5, with 2 g·L^−1 bovine serum albumin (KRB/BSA). Cells were incubated for 1 h (5% CO2, 37° C.) in KRB medium containing 8.3 mmol·L^−1 glucose (glucose-stimulated secretion) in the presence or absence of the compounds tested. At the end of the 1 h incubation period, the medium was sampled and stored at −20° C. until the insulin assay. Insulin concentration in cell supernatants was determined using the homogeneous time resolved fluorescence technology (HTRF), according to the manufacturer's instructions (HTRF insulin assay kit, Cisbio International, Bagnols-sur-Ceze, France). Briefly, two anti-insulin antibodies were used; one labelled with Eu^3+-Cryptate and one labelled with XL665 recognizing distinct epitopes. When these two fluorophores bind to insulin molecules, the two antibodies come into close proximity, allowing fluorescence resonance energy transfer (FRET) to occur between the Eu^3+-Cryptate and the XL665. This FRET increases proportionally with the insulin concentrations. All the experiments were performed at least in quadruplicate.
(§2) For protection experiments, INS-1 cells were pre-incubated with the indicated concentrations of urolithins for one hour (5% CO2, 37° C.) in RPMI medium. After two washes in HEPES-balanced Krebs-Ringer bicarbonate buffer (123 mmol·L^−1 NaCl, 5.4 mmol·L^−1 KCl, 1.3 mmol·L^−1 KH2PO4, 2.7 mmol·L^−1 MgSO4, 2.9 mmol·L^−1 CaCl2, 5 mmol·L^−1 NaHCO3 and 20 mmol·L^−1 HEPES, pH 7.5) containing 2 g·L^−1 bovine serum albumin (KRB/BSA), INS-1 cells were incubated for one hour (5% CO2, 37° C.) in KRB/BSA containing urolithins at the indicated concentrations in the presence of 1.4 mmol·L^−1 glucose (basal condition) or 8.3 mmol·L^−1 glucose (stimulant condition). When used, H2O2 (50 gmol·L^−1) was added at the beginning of the one-hour incubation period. Control experiments were performed in the basal condition, in the absence of urolithins during the pre-incubation and incubation periods.
Insulin secretion was determined as described above by measuring insulin accumulation after a one-hour incubation period.

[2] = tested on: INS-1 insulin-secreting β-cells; assay: Exendin + glucose-stimulated insulin secretion in INS-1 cells; details: 8.3 mmol·L^−1 glucose + 0.001 μmol·L^−1 exendin; for maximal response, stimulation as compared to exendin alone: 20
Description: (§3) The insulin-secreting cell line INS-1 (a gift from Professor C. B. Wollheim) was cultured in RPMI-1640, supplemented with 10% fetal calf serum (FCS), 100 U·mL^−1 penicillin, 100 μg·mL^−1 streptomycin, 2 mmol·L^−1 L-glutamine, 10 mmol·L^−1 HEPES, 1 mmol·L^−1 sodium pyruvate, and […] 2-mercaptoethanol, as previously described by Youl et al. (2010). Cells were seeded in 24-well plates (4×10^5 cells per well) and were used for experiments after 5 days of culture.
as §1
Material and methods were the same as described in example 1. For the determination of insulin secretion, cells were incubated for 1 h (5% CO2, 37° C.) in KRB medium containing 8.3 mmol·L^−1 glucose (glucose-stimulated condition) and exendin (0.001 μmol·L^−1) in the presence or absence of the compounds tested. Data were expressed as percent of exendin (0.001 μmol·L^−1)+glucose (8.3 mmol·L^−1)-stimulated insulin secretion (“control 100%”) (FIGS. 4A-D).

[3] = tested on: INS-1 insulin-secreting β-cells; assay: Insulin secretion in INS-1 cells under low-glucose (1.4 mmol·L^−1) condition; details: 1.4 mmol·L^−1 glucose; maximal concentration tested 20
Description: as §3, §1
Material and methods were the same as described in example 1. For the determination of insulin secretion, cells were incubated for 1 h (5% CO2, 37° C.) in KRB medium containing either 1.4 mmol·L^−1 glucose (low-glucose) or 8.3 mmol·L^−1 glucose (glucose-stimulated secretion) in the presence or absence of the compounds tested. At the end of the 1 h incubation period, mediums were sampled and stored at −20° C. until the insulin assay. Insulin concentration in cell supernatants was determined as described in Example 1.

[4] = tested on: INS-1 insulin-secreting β-cells; assay: INS-1 cell viability (MTT) in the presence of oxidative stress (H2O2); details: 20 μmol·L^−1 urolithin; 8.3 mmol·L^−1 glucose + H2O2
Description: as §2
Cell viability was determined using the 3-(4,5-Dimethylthiazol-2-yl)-2,5-diphenyltetrazolium bromide (MTT) assay. At the end of the one-hour incubation period, cells were washed with KRB/BSA and KRB/BSA containing 5 mg/ml MTT was added to each well. Plates were then incubated for 3 h in the dark in a humidified atmosphere (5% CO2, 37° C.). Cells were washed with phosphate buffered saline (PBS) and precipitates were dissolved in 50 μl dimethyl sulfoxide (DMSO). Absorbance of the reduced intracellular formazan product was read at 492 nm on a microtiter plate reader (Tecan, Lyon, France). Experiments were performed in quadruplicate.

[5] = tested on: INS-1 insulin-secreting β-cells; assay: Glucose (8.3 mmol·L^−1)-stimulated insulin secretion in INS-1 cells (HTRF insulin assay); details: for ability to amplify glucose-stimulated insulin secretion: blind screening, 2 and 20 μM; for % control response (glucose-stimulated insulin secretion): control = glucose alone; for degree of stimulation of insulin secretion: summary over the different insulin secretion conditions in INS-1 cells, 20 μmol·L^−1
Description: Cells were seeded in 24-well plates (4×10^5 cells per well) and were used for experiments after 5 days of culture.
as §1, with “Cells” for “Before the treatment, RPMI medium was removed and the cells were washed twice with HEPES-balanced Krebs-Ringer bicarbonate buffer (KRB) containing (in mmol·L^−1): 123 NaCl, 5.4 KCl, 1.3 KH2PO4, 2.7 MgSO4, 2.9 CaCl2, 5 NaHCO3 and 20 HEPES, pH 7.5, with 2 g·L^−1 bovine serum albumin (KRB/BSA). Cells”
For the determination of insulin secretion, cells were incubated for 1 h (5% CO2, 37° C.) in KRB medium containing either 1.4 mmol·L^−1 glucose (low-glucose) or 8.3 mmol·L^−1 glucose (glucose-stimulated secretion) in the presence or absence of the compounds tested. At the end of the 1 h incubation period, mediums were sampled and stored at −20° C. until the insulin assay.

[6] = compound 2 μM, 8.3 mmol·L^−1 glucose
[7] = compound 20 μM, 8.3 mmol·L^−1 glucose

Row | Structure (SMILES) | concentration active in preventing insulin secretion impairment induced by H2O2 [1] [µM] | raise of insulin secretion in the presence of exendin and glucose [2] | stimulation of insulin secretion in low-glucose condition [3] | prevention of viability impairment induced by H2O2 (MTT) [4] | ability to amplify glucose-stimulated insulin secretion ([5]; 8.3 mmol·L^−1 glucose) | % control response (glucose-stimulated insulin secretion) [5, 6] [%] | % control response (glucose-stimulated insulin secretion) [5, 7] [%] | degree of stimulation of insulin secretion [5] | insulin secretion stimulation as compared to control conditions ([1]; 20 μmol·L^−1) [%] | insulin secretion stimulation as compared to control conditions [1] [%] | active concentration ([5]; glucose-stimulated secretion condition, active at this concentration only) [µM] | maximal response, stimulation as compared to exendin alone [2] | stimulation of insulin secretion at the maximal concentration tested ([5]; 8.3 mmol·L^−1 glucose, control 100% = glucose alone)
1 | O=c1oc2cc(O)ccc2c2ccc(O)cc12 [Urolithin A, urolithin A] | 20 | did not induce a significant raise of insulin secretion; also recorded: did not amplify exendin-stimulated insulin secretion | did not significantly stimulate insulin secretion; also recorded: does not stimulate insulin secretion | no effect | able to amplify | 109.82 | 162.50 | about 160% |  |  |  |  | 
2 | O=c1oc2cc(O)ccc2c2ccccc12 [Urolithin B, urolithin B] | 5 | did not induce a significant raise of insulin secretion; also recorded: did not amplify exendin-stimulated insulin secretion | induced some stimulation | partially active | able to amplify | 108.77 | 145.61 | 140% | 200 | 150 | 20 |  | 
3 | O=c1oc2cc(O)ccc2c2cc(O)c(O)cc12 [Urolithin C, urolithin C] | 5 | induced a significant concentration-dependent stimulation of insulin secretion | induced some stimulation | totally prevent viability impairment | able to amplify | 107.14 | 194.64 | 185-200% | 200 |  |  | about 185% | about 200%
4 | O=c1oc2c(O)c(O)ccc2c2cc(O)c(O)cc12 [Urolithin D, urolithin D] | 5 | induced a significant concentration-dependent stimulation of insulin secretion | induced some stimulation | totally prevent viability impairment | able to amplify | 88.79 | 158.62 | 135-155% |  |  |  | 140% | 

— patent US11213508B2, “Compositions comprising urolithins and uses thereof for the stimulation of insulin secretion” (Centre National de la Recherche Scientifique (CNRS), priority 2013, dated 2022)
